From PubChem BioAssay AID1053162 (Broad Institute, 2014)

Tested on: HepG2 PCSK9 mRNA, RT-qPCR, 24 h
Assay: cholesterol-dependence of PCSK9 transcript levels – cell-based, HepG2, RT-PCR, cherry-picked dose, mechanism study for Trib1 inducer project, late-stage follow-up (AID 1053162)
Conditions: hits give high values

## CN1C(=O)c2cc(NC(=O)c3ccc(C(F)(F)F)cc3)ccc2OC[C@@H]2O[C@H](CC(=O)NC3Cc4ccccc4C3)CC[C@@H]21
  fold induction: 2.5
